Source: US20260200845A1, “NEUTROPHIL ELASTASE INHIBITOR AND USE THEREOF” (Shanghai Yidi Biotechnology Co., Ltd, priority 2023, published 2026)

Legend:
rhELA2 = biological target: T1, rhELA2 (Homo sapiens, UniProt P08246); experiment: Neutrophil elastase (rhELA2) fluorescence inhibition assay; assay type: biochemical; settings: rhELA2 activated with DPPI; 30 min preincubation, 1 hr with substrate, fluorescence 360 nm/450 nm
T1 sequence (P08246 30-267): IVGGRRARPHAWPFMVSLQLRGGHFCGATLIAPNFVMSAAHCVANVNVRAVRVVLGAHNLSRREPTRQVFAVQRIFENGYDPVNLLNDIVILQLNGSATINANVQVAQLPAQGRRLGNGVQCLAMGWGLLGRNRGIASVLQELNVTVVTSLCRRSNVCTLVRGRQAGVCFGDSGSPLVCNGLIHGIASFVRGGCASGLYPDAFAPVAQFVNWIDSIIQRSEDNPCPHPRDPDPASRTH
Protocol: Compound preparation: All compounds were dissolved in DMSO at a concentration of 10 mM, and stored at −20° C.
A 1× assay buffer was prepared. […] 1 μL of the serially diluted compound and 65.67 μL of the assay buffer were added into a plate, to obtain 3× working solutions of the positive compound and the test compounds (the final concentration in DMSO was 1.5%). The plate was sealed with a sealing film and shaken on an oscillator for 15 min.
A 1× activation buffer was prepared. rhELA2 was diluted in the activation buffer containing DPPI and incubated at 37° C. for 2 hrs to activate rhELA2. 5 μl of the 3× diluted working solutions of the compound was added to a 384-well plate. rhELA2 was diluted with the 1× assay buffer, to obtain a 3× working solution of rhELA2. 5 μl of the 3× working solution of rhELA2 was added to each well of the 384-well plate. The plate was sealed and incubated for 30 min at room temperature in the dark.
A 3× substrate solution was prepared in the 1× assay buffer. 5 μl of the 3× working solution of the substrate was added into the 384-well plate. The 384-well plate was centrifuged at 1000 rpm for 1 min, and incubated for 1 hr at room temperature in the dark. The fluorescence value FLU at 360 nm/450 nm was read on a plate reader.
The inhibition rate % was calculated. Inhibition rate=(1−(FLU of the compound−FLU of the positive well)/(FLU of the reference well−FLU of the positive well)). FLU of the reference well is that of a well with only the enzyme and no the inhibitor, and FLU of the positive well is that of a well with the enzyme and 3000 nm Sivelestat-2. Then the IC50 value was calculated by the formula Y=Bottom+(Top−Bottom)/(1+10^((LogIC50−X)*HillSlope)) using Graphpad 8.0 software.

[1] = tested on: mouse model of LPS-induced acute lung injury; experiment: Animal Test 1: mouse model of LPS-induced acute lung injury; assay type: in vivo, ICR mice; settings: for Content of inflammatory factor IL-1β (Mean ± SD) / Content of inflammatory factor TNF-α (Mean ± SD): left lung homogenate supernatant, 24 h after LPS, i.v. 25 mg/kg at 0.5 h, 4 h and 12 h, total 75 mg/kg
Protocol: Test animals: ICR mice, SPF grade, male, weight at the time of administration: 25-28 g.
Animal grouping: 4 groups, each group having 10 animals.
Establishment of mouse model of LPS-induced acute lung injury: The mice were anesthetized by intramuscular injection of Zoletil®50 (0.05 mL/mouse). Then the mice were fixed in a supine position, the cervical trachea was isolated, and lipopolysaccharide (LPS) (1 mg/mL, 35 μL/mouse) was sprayed by a high-pressure atomizing nozzle. The neck skin was sutured, and disinfected with iodophor.
The dosage at each administration was 25 mg/kg, and the total daily dosage was 75 mg/kg.
24 h after LPS was sprayed into the trachea of mice, the mice were sacrificed, and the trachea was isolated and intubated. The left lung lobe was ligated. The lung lavage was carried out with 0.5 mL normal saline (containing 1% serum and 2 U/mL heparin), and then the process was repeated two times. The lavage fluids of the 3 times were mixed and stood on ice for later use. The ligated left lung lobe was removed from the animal Nos. 1-8 in the blank control group, the model group, the test group and the positive control group respectively, weighed, added with 0.9% NaCl at a ratio of 1:6, homogenized at 4° C. and centrifuged at 10000 rpm for 10 min. The supernatant was collected and the contents of inflammatory factors IL-1B and TNF-α were determined.

[2] = tested on: rat model of hydrochloric acid-induced acute lung injury; experiment: Animal Test 2: rat model of hydrochloric acid-induced acute lung injury; assay type: in vivo, rats
Protocol: Animal grouping: 4 groups, each group having 8 animals.
Establishment of rat model of hydrochloric acid-induced acute lung injury: 0.1 N HCL was sprayed into the trachea of rats at a dosage of 0.1 mL/rat.
Both groups were administered twice by tail vein injection, immediately after the model establishment and again 2.5 hrs after the model establishment.
The rats were sacrificed 5 h after the model establishment. Alveolar lavage was performed. The inflammatory cells, protein exudation, pulmonary hemorrhage and NE enzyme activity in the lavage fluid were measured.

[3] = alveolar lavage fluid 5 h after model establishment, tail vein injection twice, total 30 mg/kg
[4] = alveolar lavage fluid 5 h after model establishment, tail vein injection twice, total 120 mg/kg

Structure (SMILES): C[C@@H](NC(=O)c1ccccc1NS(=O)(=O)c1ccc(OC(=O)C(C)(C)C)c(F)c1)C(=O)O [Compound 23]
- IC50 (rhELA2): 3.69 nM

Structure (SMILES): Cn1nccc1-c1ccc(NS(=O)(=O)c2ccc(OC(=O)C(C)(C)C)cc2)c(C(=O)NCC(=O)O)c1 [Compound 1, (5-(1-methyl-1H-pyrazol-5-yl)-2-((4-(pivaloyloxy)phenyl)sulfonamido)benzoyl)glycine]
- IC50 (rhELA2): 20.4 nM

Structure (SMILES): C[C@@H](NC(=O)c1cc(C#N)ccc1NS(=O)(=O)c1ccc(OC(=O)C(C)(C)C)cc1)C(=O)O [Compound 22]
- IC50 (rhELA2): 2.2 nM

Structure (SMILES): COc1ccc(NS(=O)(=O)c2ccc(OC(=O)C(C)(C)C)cc2)c(C(=O)NCC(=O)O)c1 [Compound 17]
- IC50 (rhELA2): 15.3 nM

Structure (SMILES): CC(C)(C)C(=O)Oc1ccc(S(=O)(=O)Nc2ccc(-n3ccnc3)cc2C(=O)NCC(=O)O)cc1 [Compound 3]
- IC50 (rhELA2): 23.6 nM

Structure (SMILES): CC(C)(C)C(=O)Oc1ccc(S(=O)(=O)Nc2ccccc2C(=O)NCC(=O)O)cc1 [Sivelestat sodium, reference compound]
- Content of inflammatory factor IL-1β (Mean ± SD) [1]: 1048 ± 384 ^ pg/mL
- Content of inflammatory factor TNF-α (Mean ± SD) [1]: 552 ± 77 pg/mL
- Protein content in alveolar lavage fluid (mg/mL) [2, 3]: 0.35 ± 0.07 **^ mg/mL
- Pulmonary hemorrhage (IOD, absorbance at 412 nm) [2, 3]: 0.25 ± 0.10
- White blood cell count (WBC, 1 × 10^6 cell/mL) [2, 3]: 0.42 ± 0.11 1 × 10^6 cell/mL

Structure (SMILES): CC(C)(C)C(=O)Oc1ccc(S(=O)(=O)N[C@@H]2CCC(F)(F)C[C@@H]2C(=O)NCC(=O)O)cc1 [Compound 6]
- IC50 (rhELA2): 32.8 nM

Structure (SMILES): COC[C@@H](NC(=O)c1cc(C#N)ccc1NS(=O)(=O)c1ccc(OC(=O)C(C)(C)C)cc1)C(=O)O [Compound 24]
- IC50 (rhELA2): 1.5 nM

Structure (SMILES): CSCC(NC(=O)c1ccccc1NS(=O)(=O)c1ccc(OC(=O)C(C)(C)C)cc1)C(=O)O (centres unmarked) [Compound 27]
- IC50 (rhELA2): 130 nM

Structure (SMILES): COC[C@H](NC(=O)c1ccccc1NS(=O)(=O)c1ccc(OC(=O)C(C)(C)C)cc1)C(=O)O [Compound 26]
- IC50 (rhELA2): 8.49 nM

Structure (SMILES): CC(C)(C)C(=O)Oc1ccc(S(=O)(=O)Nc2ccccc2C(=O)N[C@H](CF)C(=O)O)cc1 [Compound 19]
- IC50 (rhELA2): 2.25 nM

Structure (SMILES): COC[C@@H](NC(=O)c1ccccc1NS(=O)(=O)c1ccc(OC(=O)C(C)(C)C)cc1)C(=O)O [Compound 20]
- inhibitory effects on inflammatory factors IL-1B and TNF-α, compared with Sivelestat sodium ([1]; both 75 mg/kg total, i.v.): significantly better than those of Sivelestat sodium
- Content of inflammatory factor IL-1β (Mean ± SD) [1]: 784 ± 159 pg/mL
- Content of inflammatory factor TNF-α (Mean ± SD) [1]: 442 ± 118 pg/mL
- IC50 (rhELA2): 2.47 nM
- improvement of pulmonary hemorrhage, reduction of protein exudation and white blood cell count in alveolar lavage fluid, compared with Sivelestat sodium ([2]; Compound 20 120 mg/kg vs Sivelestat sodium 30 mg/kg): more obviously compared with Sivelestat sodium
- Protein content in alveolar lavage fluid [2, 4]: 0.30 ± 0.05 mg/mL
- Pulmonary hemorrhage (IOD, absorbance at 412 nm) [2, 4]: 0.20 ± 0.03
- White blood cell count (WBC, 1 × 10^6 cell/mL) [2, 4]: 0.28 ± 0.10 ** 1 × 10^6 cell/mL

Structure (SMILES): C[C@@H](NC(=O)c1cc(F)ccc1NS(=O)(=O)c1ccc(OC(=O)C(C)(C)C)cc1)C(=O)O [Compound 21]
- IC50 (rhELA2): 2.26 nM

Structure (SMILES): [2H]C([2H])([2H])OC[C@@H](NC(=O)c1ccccc1NS(=O)(=O)c1ccc(OC(=O)C(C)(C)C)cc1)C(=O)O [Compound 25, O-(methyl-d3)-N-(2-((4-(pivaloyloxy)phenyl)sulfonamido)benzoyl)-D-serine]
- IC50 (rhELA2): 2.54 nM

Structure (SMILES): CC(C)(C)C(=O)Oc1ccc(S(=O)(=O)Nc2ccccc2C(=O)NCP(=O)(O)O)cc1 [Compound 12, ((2-((4-(pivaloyloxy)phenyl)sulfonamido)benzamido)methyl)phosphonic acid]
- IC50 (rhELA2): 5.69 nM

Structure (SMILES): Cn1cc(-c2ccc(NS(=O)(=O)c3ccc(OC(=O)C(C)(C)C)cc3)c(C(=O)NCC(=O)O)c2)cn1 [Compound 2]
- IC50 (rhELA2): 30.5 nM

Structure (SMILES): CC(C)(C)C(=O)Oc1ccc(S(=O)(=O)Nc2ccccc2C(=O)NCCS(=O)(=O)O)cc1 [Compound 13, 2-(2-((4-(pivaloyloxy)phenyl)sulfonamido)benzamido) ethan-1-sulfonic acid]
- IC50 (rhELA2): 4.22 nM

Structure (SMILES): CC(C)(C)C(=O)Oc1ccc(S(=O)(=O)Nc2ccc(-c3cnoc3)cc2C(=O)NCC(=O)O)cc1 [Compound 11]
- IC50 (rhELA2): 27 nM
